Test [1] deals with human liver tumor cell line ITRI-H16. Kind of test: Cell viability of ITRI-H16 cells after 48-hour treatment, Alarmablue measurement assay. The settings on record: read-out: half maximal inhibitory concentration (IC50) in the ITRI-H16 cell line.
A further test has as its system liver cancer. The settings on record: phase III of human clinical trials; cited from earlier work.

Regarding `CNC(=O)c1cc(Oc2ccc(NC(=O)Nc3ccc(Cl)c(C(F)(F)F)c3)cc2)ccn1` [Sorafenib], in test [1], the IC50 was roughly 14 µM. Also, in the test with liver cancer, the “extension of patient survival time” value is on record as “three-month”.

Values taken from patent US20150160195A1, “HUMAN LIVER TUMOR CELL LINE AND METHOD OF AGENT SCREENING” (Industrial Technology Research Institute, priority 2013, published 2015).
